# Assay results reported in ChEMBL document CHEMBL5209582, “Membrane potential based assay for SLC6A6 using HEK-293 SLC6A6 OE cells” (2022).
# Biological target: T1, Sodium- and chloride-dependent taurine transporter (Homo sapiens, UniProt P31641)
# T1 sequence (P31641 whole entry): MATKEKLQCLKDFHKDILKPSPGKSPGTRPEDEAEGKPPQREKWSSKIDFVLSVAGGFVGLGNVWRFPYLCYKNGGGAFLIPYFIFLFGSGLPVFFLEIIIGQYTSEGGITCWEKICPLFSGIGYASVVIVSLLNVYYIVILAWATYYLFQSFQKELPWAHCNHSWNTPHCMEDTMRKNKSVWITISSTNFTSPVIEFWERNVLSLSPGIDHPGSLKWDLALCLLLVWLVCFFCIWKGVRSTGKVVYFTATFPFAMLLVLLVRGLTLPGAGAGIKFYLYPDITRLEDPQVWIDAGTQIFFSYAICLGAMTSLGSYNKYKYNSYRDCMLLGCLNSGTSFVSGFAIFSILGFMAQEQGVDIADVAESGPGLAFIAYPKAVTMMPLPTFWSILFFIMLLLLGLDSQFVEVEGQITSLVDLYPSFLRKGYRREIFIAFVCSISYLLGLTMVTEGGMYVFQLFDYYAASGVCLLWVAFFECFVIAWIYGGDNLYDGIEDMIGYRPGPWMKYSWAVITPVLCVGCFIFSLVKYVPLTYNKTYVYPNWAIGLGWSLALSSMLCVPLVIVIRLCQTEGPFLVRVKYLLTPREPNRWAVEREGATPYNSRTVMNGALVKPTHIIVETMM
# Assay: Substrate uptake by the Taurine Transporter (TauT, SLC6A6) as assessed by the fluorescent FLIPR membrane potential dye in HEK-293 JumpIN-SLC6A6 cells (PubChem AID: 1794824)
# Type: functional, cell-based, HEK293
row,SMILES,EC50 [µM]
1,NCCCC(=O)O [GAMMA-AMINOBUTYRIC ACID],354
2,NCCS(=O)(=O)O [TAURINE],10
